Data on two compounds can be found in patent US20260232578A1, “COMPOSITIONS AND METHODS FOR TRANSMUCOSAL ABSORPTION” (Tonix Pharma Limited, priority 2012, published 2026).

“And” between values parts separate entries of the source, which are not always exact repeats. Identical values can stand only once. Like-named read-outs stand apart in the source and are kept apart here.

Test [1] deals with T1, muscarinic M1 receptor (Homo sapiens, UniProt P11229).
T1 sequence (P11229 1-460): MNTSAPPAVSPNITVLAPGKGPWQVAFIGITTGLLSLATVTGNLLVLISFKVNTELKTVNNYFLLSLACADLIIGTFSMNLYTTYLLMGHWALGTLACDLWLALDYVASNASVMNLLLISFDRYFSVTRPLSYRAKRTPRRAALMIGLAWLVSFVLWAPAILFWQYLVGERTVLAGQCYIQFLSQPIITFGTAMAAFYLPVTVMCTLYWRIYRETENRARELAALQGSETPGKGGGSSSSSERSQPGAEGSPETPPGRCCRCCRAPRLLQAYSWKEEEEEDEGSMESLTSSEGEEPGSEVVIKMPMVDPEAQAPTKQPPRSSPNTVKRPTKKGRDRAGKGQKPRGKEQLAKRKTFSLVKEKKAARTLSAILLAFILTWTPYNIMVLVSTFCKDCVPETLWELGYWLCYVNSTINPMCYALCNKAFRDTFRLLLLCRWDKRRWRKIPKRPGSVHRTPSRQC
The experiment in a line: G-protein-independent signal transduction, β-arrestin signaling. The test is classed as cell-based. Also noted: expressed in transfected cells. Particulars: for IC50: M1, β-arrestin signaling, read-out: IC50, functional antagonist.

For the next test, the target named is T2, 5-HT1A receptor (Homo sapiens, UniProt P08908).
T2 construct: expressed in transfected cells
T2 sequence (P08908 1-422): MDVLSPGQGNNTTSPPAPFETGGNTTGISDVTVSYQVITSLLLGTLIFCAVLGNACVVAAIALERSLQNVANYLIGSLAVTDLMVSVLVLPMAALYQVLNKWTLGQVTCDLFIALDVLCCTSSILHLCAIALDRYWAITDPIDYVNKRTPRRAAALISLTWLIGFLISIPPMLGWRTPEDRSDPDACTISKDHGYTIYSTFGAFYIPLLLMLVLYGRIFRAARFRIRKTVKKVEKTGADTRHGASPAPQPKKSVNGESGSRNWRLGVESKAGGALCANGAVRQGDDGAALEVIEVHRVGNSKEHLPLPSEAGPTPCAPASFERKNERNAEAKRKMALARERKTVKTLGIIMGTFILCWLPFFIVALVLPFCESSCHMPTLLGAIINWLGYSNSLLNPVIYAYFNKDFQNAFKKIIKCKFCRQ
The experiment in a line: Equilibrium receptor binding, recombinant human receptor.

For test [2], the target named is norepinephrine (NE) transporter (Homo sapiens, UniProt P23975). The experiment in a line: Equilibrium binding to transporters (FIG. 19). To be noted: Norepinephrine TP (transporter).
In a further test the target is T3, D4.4 (Homo sapiens, UniProt P21917).
T3 construct: expressed in transfected cells
The experiment in a line: Equilibrium receptor binding, recombinant human receptor.

The target in test [3] is T1, muscarinic M1 receptor. Briefly: biochemical.
Test [4] concerns the target T4, 5-HT2B (Homo sapiens, UniProt P41595).
T4 construct: expressed in transfected cells
Briefly: G-protein-dependent signal transduction, intracellular Ca2+ mobilization. Particulars: for IC50: Ca2+ mobilization, read-out: IC50, functional antagonist. The test is classed as cell-based. The protocol: (§1) Quantitation was based on peak area ratio of the analytes versus their stable labeled internal standards. A weighted (1/C2), linear regression was performed to determine the concentration of the analytes. All regressions and figures presented in this validation report were generated by MDS Sciex Analyst version 1.4.2 and Thermo Electron Corporation Watson LIMS software, version 7.0.0.01b. […] Select receptors were analyzed in ligand-induced intracellular calcium mobilization.
On the technique in general: A change in cytosolic calcium serves as a functional read-out for many receptors and channels.

The target of another test is T5, 5-HT2A (Homo sapiens, UniProt P28223).
T5 construct: expressed in transfected cells
The test is described as above. Type of test: cell-based. Particulars: for IC50: Ca2+ mobilization, read-out: IC50, functional antagonist. The protocol:
as §1

Another test concerns the target T6, 5-HT2C receptor (Homo sapiens, UniProt P28335).
T6 construct: expressed in transfected cells
T6 sequence (P28335 33-458): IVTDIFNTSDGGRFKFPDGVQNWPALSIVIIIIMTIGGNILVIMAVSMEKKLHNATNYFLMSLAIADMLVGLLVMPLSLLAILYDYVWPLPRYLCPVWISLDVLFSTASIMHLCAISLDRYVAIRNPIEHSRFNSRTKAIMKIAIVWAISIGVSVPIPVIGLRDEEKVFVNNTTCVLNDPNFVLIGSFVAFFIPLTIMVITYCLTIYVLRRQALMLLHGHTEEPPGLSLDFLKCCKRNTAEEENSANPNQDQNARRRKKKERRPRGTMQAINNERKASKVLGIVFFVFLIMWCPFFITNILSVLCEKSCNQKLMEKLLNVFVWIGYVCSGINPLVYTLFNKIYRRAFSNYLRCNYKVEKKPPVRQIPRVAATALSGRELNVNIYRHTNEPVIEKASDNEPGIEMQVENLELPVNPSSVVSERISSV
The test is described as above. Type of test: cell-based. The protocol: as §1

Another test has as its target T7, 5-HT2C (Homo sapiens, UniProt P28335).
T7 construct: expressed in transfected cells
Briefly: G-protein-dependent signal transduction, turnover of inositol triphosphate (IP). Type of test: cell-based. Particulars: read-out: IC50 (nM) (Antagonist).

A further test has as its target α1B (Homo sapiens, UniProt P35368). Briefly: Functional antagonism, G-protein-dependent signal transduction (Table 69).
In test [5] the target is T8, adrenergic alpha-2A receptor (Alpha2A) (Homo sapiens, UniProt P08913).
T8 construct: expressed in transfected cells
T8 sequence (P08913 1-465): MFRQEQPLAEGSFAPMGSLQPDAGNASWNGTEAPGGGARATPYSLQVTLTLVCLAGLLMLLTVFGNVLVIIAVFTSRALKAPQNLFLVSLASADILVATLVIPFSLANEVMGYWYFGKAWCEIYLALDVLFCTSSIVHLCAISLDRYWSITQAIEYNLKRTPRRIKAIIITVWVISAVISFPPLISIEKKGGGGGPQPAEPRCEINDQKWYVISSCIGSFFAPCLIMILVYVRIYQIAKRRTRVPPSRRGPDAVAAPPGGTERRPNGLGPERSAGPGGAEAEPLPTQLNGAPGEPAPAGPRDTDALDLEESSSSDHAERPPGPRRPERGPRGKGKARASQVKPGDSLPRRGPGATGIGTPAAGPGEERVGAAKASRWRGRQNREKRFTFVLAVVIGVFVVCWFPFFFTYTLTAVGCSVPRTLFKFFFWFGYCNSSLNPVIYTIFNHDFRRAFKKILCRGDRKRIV
The experiment in a line: Equilibrium receptor binding, recombinant human receptor.

The next test has as its target T9, 5-HT5A receptor (Homo sapiens, UniProt P47898).
T9 construct: expressed in transfected cells
Described as above.

Test [6] deals with T4, 5-HT2B. Described as above.
Another test has as its target T10, dopamine D1 receptor (Homo sapiens, UniProt P21728).
T10 construct: expressed in transfected cells
Described as above.

Where [7] appears, read: 5-HT2c, read-out: IC50, functional antagonist.

T10 sequence (P21728 whole entry): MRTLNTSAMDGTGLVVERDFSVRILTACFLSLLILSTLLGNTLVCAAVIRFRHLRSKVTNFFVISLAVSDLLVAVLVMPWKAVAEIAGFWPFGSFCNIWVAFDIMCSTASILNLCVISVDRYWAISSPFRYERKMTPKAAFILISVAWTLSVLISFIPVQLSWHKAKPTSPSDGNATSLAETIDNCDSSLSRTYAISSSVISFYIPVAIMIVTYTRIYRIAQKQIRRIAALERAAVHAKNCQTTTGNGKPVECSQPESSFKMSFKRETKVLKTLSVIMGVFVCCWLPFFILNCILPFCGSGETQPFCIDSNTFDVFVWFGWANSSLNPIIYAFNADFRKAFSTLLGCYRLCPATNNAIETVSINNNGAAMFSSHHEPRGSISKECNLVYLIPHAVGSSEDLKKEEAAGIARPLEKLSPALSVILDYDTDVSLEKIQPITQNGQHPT
T4 sequence (P41595 whole entry): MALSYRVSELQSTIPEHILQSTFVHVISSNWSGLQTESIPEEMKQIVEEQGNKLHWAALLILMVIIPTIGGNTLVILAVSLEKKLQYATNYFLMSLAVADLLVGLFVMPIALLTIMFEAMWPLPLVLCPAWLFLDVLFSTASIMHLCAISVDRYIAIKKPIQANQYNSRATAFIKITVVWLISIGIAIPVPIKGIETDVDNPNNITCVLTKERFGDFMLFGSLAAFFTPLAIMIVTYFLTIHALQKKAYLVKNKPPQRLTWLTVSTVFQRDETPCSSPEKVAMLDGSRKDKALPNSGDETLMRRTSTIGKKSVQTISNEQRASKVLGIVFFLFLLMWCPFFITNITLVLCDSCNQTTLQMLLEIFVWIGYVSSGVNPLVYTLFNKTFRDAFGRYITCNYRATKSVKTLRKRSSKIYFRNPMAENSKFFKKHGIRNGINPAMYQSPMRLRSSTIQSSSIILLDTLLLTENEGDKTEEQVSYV
T5 sequence (P28223 whole entry): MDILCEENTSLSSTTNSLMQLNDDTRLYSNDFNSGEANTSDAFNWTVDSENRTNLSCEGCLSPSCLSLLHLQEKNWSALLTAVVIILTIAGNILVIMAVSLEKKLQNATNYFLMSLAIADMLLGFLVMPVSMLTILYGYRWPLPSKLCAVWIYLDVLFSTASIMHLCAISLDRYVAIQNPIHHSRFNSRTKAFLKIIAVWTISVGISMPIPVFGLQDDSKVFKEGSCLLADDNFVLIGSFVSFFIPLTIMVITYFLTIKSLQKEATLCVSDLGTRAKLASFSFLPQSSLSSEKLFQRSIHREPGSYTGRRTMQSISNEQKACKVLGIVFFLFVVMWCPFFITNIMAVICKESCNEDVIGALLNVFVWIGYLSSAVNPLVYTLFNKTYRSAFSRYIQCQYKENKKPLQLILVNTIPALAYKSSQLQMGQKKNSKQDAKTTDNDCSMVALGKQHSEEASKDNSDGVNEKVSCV
T3 sequence (P21917 whole entry): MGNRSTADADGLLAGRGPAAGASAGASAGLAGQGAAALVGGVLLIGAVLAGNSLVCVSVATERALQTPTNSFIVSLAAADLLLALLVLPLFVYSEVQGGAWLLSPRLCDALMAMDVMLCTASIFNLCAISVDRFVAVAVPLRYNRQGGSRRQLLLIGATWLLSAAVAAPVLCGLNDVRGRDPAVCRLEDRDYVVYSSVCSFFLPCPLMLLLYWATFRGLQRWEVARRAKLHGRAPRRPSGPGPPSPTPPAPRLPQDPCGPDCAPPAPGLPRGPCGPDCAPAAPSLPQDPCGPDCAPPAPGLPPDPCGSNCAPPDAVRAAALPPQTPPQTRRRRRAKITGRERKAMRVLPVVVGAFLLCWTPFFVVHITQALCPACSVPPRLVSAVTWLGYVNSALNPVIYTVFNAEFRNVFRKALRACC
Chain of norepinephrine (NE) transporter (P23975 whole entry): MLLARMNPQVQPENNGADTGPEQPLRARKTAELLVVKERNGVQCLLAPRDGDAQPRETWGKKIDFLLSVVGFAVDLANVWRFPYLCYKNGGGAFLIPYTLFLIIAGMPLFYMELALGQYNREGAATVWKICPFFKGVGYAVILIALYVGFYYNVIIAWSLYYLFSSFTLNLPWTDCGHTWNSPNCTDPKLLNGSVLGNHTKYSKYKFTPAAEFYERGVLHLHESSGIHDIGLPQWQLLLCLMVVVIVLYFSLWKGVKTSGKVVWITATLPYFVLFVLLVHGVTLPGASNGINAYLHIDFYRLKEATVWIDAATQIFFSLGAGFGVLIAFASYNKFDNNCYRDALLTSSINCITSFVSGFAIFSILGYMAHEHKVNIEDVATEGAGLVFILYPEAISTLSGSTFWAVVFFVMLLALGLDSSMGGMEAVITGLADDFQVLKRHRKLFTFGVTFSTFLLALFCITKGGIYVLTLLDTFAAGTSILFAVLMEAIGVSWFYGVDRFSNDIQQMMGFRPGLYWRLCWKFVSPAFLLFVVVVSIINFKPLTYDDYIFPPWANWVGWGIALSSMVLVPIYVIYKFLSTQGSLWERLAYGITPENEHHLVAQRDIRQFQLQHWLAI
Chain of α1B (P35368 whole entry): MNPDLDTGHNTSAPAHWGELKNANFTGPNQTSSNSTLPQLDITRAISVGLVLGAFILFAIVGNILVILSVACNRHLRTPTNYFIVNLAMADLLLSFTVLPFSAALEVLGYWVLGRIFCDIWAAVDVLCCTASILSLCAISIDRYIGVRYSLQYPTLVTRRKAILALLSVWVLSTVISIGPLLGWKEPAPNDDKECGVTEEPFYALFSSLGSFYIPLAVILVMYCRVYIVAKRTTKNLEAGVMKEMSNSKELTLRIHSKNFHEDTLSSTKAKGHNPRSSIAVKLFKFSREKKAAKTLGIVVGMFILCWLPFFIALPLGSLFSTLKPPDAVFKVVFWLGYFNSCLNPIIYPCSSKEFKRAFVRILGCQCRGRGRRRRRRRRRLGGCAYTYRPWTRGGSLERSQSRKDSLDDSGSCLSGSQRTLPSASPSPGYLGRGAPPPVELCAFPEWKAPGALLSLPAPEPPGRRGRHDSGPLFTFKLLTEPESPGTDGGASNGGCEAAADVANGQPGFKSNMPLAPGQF
T9 sequence (P47898 whole entry): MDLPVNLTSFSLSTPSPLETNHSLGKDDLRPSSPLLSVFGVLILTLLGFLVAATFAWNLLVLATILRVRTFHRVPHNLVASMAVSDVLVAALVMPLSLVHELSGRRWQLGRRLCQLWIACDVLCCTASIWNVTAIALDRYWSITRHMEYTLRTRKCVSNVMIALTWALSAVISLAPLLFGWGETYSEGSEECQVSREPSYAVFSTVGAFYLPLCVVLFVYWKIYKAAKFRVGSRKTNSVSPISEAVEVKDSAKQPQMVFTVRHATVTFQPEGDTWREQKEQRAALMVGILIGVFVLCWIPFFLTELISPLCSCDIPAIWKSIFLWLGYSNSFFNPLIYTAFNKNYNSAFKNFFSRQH

The term IC50 denotes the point on the concentration scale where inhibition reaches its midpoint. As a reminder, the Ki is a measure of affinity in units of concentration, obtained from inhibition or displacement. As for `CN(C)CCC=C1c2ccccc2C=Cc2ccccc21` [cyclobenzaprine, 3-(5H-dibenzo[a,d]cyclohepten-5-ylidene)-N,N-dimethyl-1-propanamine], the 50% inhibitory concentration (IC50) on muscarinic M1 receptor [1] came out at 81 nM; on 5-HT2B [4], 100 nM; at 5-HT2A, 230 nM; at 5-HT2C receptor (5-HT2C, read-out: IC50 (nM) (Antagonist)) it was 444 nM; on 5-HT2C receptor (setting [7]), 440 nM; on 5-HT2C, 770 nM. Also, the IC50 at α1B was 530 nM. Moreover, the Ki at 5-HT1A receptor came to 1100 nM; in test [2], 35 nM; at D4.4, 180 nM; at muscarinic M1 receptor [3], 7.9 nM; in test [5] it was 360 nM; at 5-HT5A receptor, 730 nM. Moreover, the Ki on 5-HT2B [6] came to 15 nM; on dopamine D1 receptor, 12 nM.
For `CNCCC=C1c2ccccc2C=Cc2ccccc21` [norcyclobenzaprine, 3-(5H-dibenzo[a,d]cyclohepten-5-ylidene)-N-methyl-1-propanamine], the “Four parameter Hill slope (or fit slope) ratio; β-arrestin signaling” value on muscarinic M1 receptor [1] (M1) turned out to be 1.05. Moreover, the IC50 on muscarinic M1 receptor [1] was 266 nM; at 5-HT2B [4], 580 nM; at 5-HT2A, 92 nM and 140 nM; on 5-HT2C receptor (setting [7]), 1220 nM; on 5-HT2C, 2000 nM; against α1B, 790 nM. For the same compound, the Ki on 5-HT1A receptor amounted to 76 nM; in test [2], 2.6 nM; at D4.4, 250 nM; on muscarinic M1 receptor [3], 30 nM; in test [5], 1800 nM; at 5-HT5A receptor, 1600 nM. In addition, the Ki at 5-HT2B [6] worked out at 12 nM; on dopamine D1 receptor, 57 nM. Further, the figures for the “Hill plot ratio (Hill slope)” value at 5-HT1A receptor (equilibrium binding), at 5-HT2B [6] (equilibrium binding) and on dopamine D1 receptor (equilibrium binding) were 4.07, 1.10 and 1.15, respectively. For the same compound, the “Four parameter Hill slope (or fit slope) ratio; Ca2+ signaling” value was 1.54 at 5-HT2B [4], 1.27 at 5-HT2A and 0.94 on 5-HT2C receptor (5-HT2C).
